We go through one molecule from BindingDB's records for doi:10.1021/acs.jmedchem.5b00261 (Genentech, 2015).

The nature of the assay: Inhibition of LRRK2 G2019S mutant-induced neuronal toxicity in human cortical neurons.

A word on the EC50: it is the concentration giving half of the maximal effect. A lower EC50 goes with higher potency in that assay.

Molecule `COc1cc(N2CCOCC2)ccc1Nc1ncc(F)c(Nc2ccccc2NS(C)(=O)=O)n1` showed an EC50 of 4 nM.
